Reference: US8883841B2, “Oncogenic ras-specific cytotoxic compound and methods of use thereof” (The Board of Regents of the University of Texas System, priority 2005, dated 2014)
“Also recorded” adds a separate entry of the source. Like-named read-outs stand apart in the source and are kept apart here.

Tests used:
[1] = test system: T29Kt1 cells; details: for IC50 in T29k cells: Table 1, value is the negative log10 of mol/L
[2] = test system: Ovcar3; assay: Cell viability, Ovcar3 ovary cancer cells; format: cell-based
[3] = test system: Heb44; assay: Cell viability, Heb44 kidney cells; format: cell-based
[4] = test system: Capanc-1; assay: Cell viability, Capanc-1 pancreatic cancer cells; format: cell-based, human
[5] = test system: H226B cells; assay: Cell viability, H226B lung cancer cells; format: cell-based, human; details: for IC50 (−LogM): H226B, Lung
[6] = test system: Heb46; assay: Cell viability, Heb46 kidney cells; format: cell-based
[7] = test system: H1299 cells; assay: Cell viability, H1299 lung cancer cells; format: cell-based, human
[8] = test system: Hct116; assay: Cell viability, Hct116 colon cancer cells; format: cell-based, human
[9] = test system: miapac; assay: Cell viability, miapac pancreatic cancer cells; format: cell-based, human
[10] = test system: H1395; assay: Cell viability, H1395 lung cancer cells; format: cell-based, human
[11] = test system: A549CK8; assay: Cell viability, A549CK8 lung cancer cells; format: cell-based, human
[12] = test system: A549 cells; assay: Cell viability, A549 lung cancer cells; format: cell-based, human
[13] = test system: H1933; assay: Cell viability, H1933 lung cancer cells; format: cell-based, human
[14] = test system: AsPC-1; assay: Cell viability, AsPC-1 pancreatic cancer cells; format: cell-based, human
[15] = test system: H2009; assay: Cell viability, H2009 lung cancer cells; format: cell-based, human
[16] = test system: Ovca429; assay: Cell viability, Ovca429 ovary cancer cells; format: cell-based
[17] = test system: HKE3; assay: Cell viability, HKE3 colon cancer cells; format: cell-based, human; details: for IC50 (−LogM): HKE3, Colon; for IC50: Homo sapiens
[18] = test system: DLD1; assay: Cell viability, DLD1 colon cancer cells; format: cell-based, human
[19] = test system: CT116P53; assay: Cell viability, CT116P53 colon cancer cells; format: cell-based, human
[20] = test system: H2122; assay: Cell viability, H2122 lung cancer cells; format: cell-based, human
[21] = test system: KM12; assay: NCI in-vitro testing, KM12 (Colon Cancer); details: KM12
[22] = test system: SW-620; assay: NCI in-vitro testing, SW-620 (Colon Cancer)
[23] = test system: OVCAR-4; assay: NCI in-vitro testing, OVCAR-4 (Ovarian Cancer)
[24] = test system: MCF7; assay: NCI in-vitro testing, MCF7 (Breast Cancer)
[25] = test system: SK-MEL-28; assay: NCI in-vitro testing, SK-MEL-28 (Melanoma)
[26] = test system: SK-MEL-5; assay: NCI in-vitro testing, SK-MEL-5 (Melanoma)
[27] = test system: NCI-H522; assay: NCI in-vitro testing, NCI-H522 (Non-Small Cell Lung Cancer)
[28] = test system: NCI-H460; assay: NCI in-vitro testing, NCI-H460 (Non-Small Cell Lung Cancer)
[29] = Homo sapiens, read-out: IC50 (−LogM) (converted)

## O=Cc1cn(Cc2ccc(Cl)cc2)c2ccccc12 [Oncrasin K001, 1H-Indole-3-carboxaldehyde, 1-[(4-chlorophenyl)methyl]-(9CI)]
[1]; 33 μM
  time course of toxicity in T29Kt1 cells: time-dependent toxicity
[1]; K-ras mutant
  concentration that effectively kills T29K cells: 10 µM
[1]
  IC50 in T29k cells: 5.6
[1]; read-out: IC50, T29Kt1 cells, dose-dependent cytotoxicity
  IC50: 2.5 µM
[1]; vs T29 and T29Ht1, 0.1 μM to 33 μM
  selectivity for T29Kt1 (T29K) cells in dose-response study: highly selective
[2]
  IC50 (−LogM): 5.6 −LogM
[3]
  IC50 (−LogM): 8 −LogM
[4]; K-Ras G12V mutation, read-out: IC50, Capanc-1
  IC50: 0.42 µM
[4]; capanc1, Pancrease
  IC50 (−LogM): 5 −LogM
[5]; first H226B line
  IC50 (−LogM): 7 −LogM
[5]; second H226B line
  IC50 (−LogM): 5.6 −LogM
[5]; Ras status not known, read-out: IC50, H226B cells
  IC50: 1.2 µM
[5]; ras status unknown
  effect on H226b cells: effective
[6]
  IC50 (−LogM): 6.1 −LogM
[7]; h1299, Lung
  IC50 (−LogM): >4.5 −LogM
[7]; mutant N-Ras, listed as Oncrasin-1
  effect on H1299 cells: minimal effect; also recorded: not effective
[8]; G13D mutation in K-Ras, read-out: IC50, HCT116
  IC50: 3.1 µM
[8]; Hct116, Colon
  IC50 (−LogM): 5.5 −LogM
[9]; miapac, Pancrease
  IC50 (−LogM): >4.5 −LogM
[10]; H1395, Lung
  IC50 (−LogM): >4.5 −LogM
[10]; wild-type Ras
  effect on H1395 cells: minimal effect
[11]; A549CK8, Lung
  IC50 (−LogM): 5.8 −LogM
[12]; A549, Lung
  IC50 (−LogM): >4.5 −LogM
[12]; K-Ras G12S, read-out: IC50, A549 cells
  IC50: 1.58 µM
[13]; H1933, Lung
  IC50 (−LogM): >4.5 −LogM
[14]; ASPC1, Pancrease
  IC50 (−LogM): 5.5 −LogM
[14]; K-Ras G12D mutation, read-out: IC50, AsPC-1
  IC50: 0.04 µM
[15]; H2009, Lung
  IC50 (−LogM): >4.5 −LogM
[16]
  IC50 (−LogM): 4.5 −LogM
[17]; first HKE3 line
  IC50 (−LogM): 6.4 −LogM
[17]; second HKE3 line
  IC50 (−LogM): 6 −LogM
[18]; DLD1, Colon
  IC50 (−LogM): >4.5 −LogM
[19]; CT116P53, Colon
  IC50 (−LogM): >4.5 −LogM
[20]; H2122, Lung
  IC50 (−LogM): 6.1 −LogM
[20]; K-Ras G12C, read-out: IC50, H2122
  IC50: 0.79 µM
[20]; lung cancer cell line, G12C
  effect on H212 cells: highly effective

## O=Cc1cn(Cc2cccc(Cl)c2)c2ccccc12 [Oncrasin K027, 1-(3-chlorobenzyl)-1H-indole-3-carbaldehyde]
[1]
  IC50 in T29k cells: 6.43
[2]; Homo sapiens, OVCAR-3
  IC50: 3.16 µM
[3]
  IC50: 0.0631 µM
[4]; Homo sapiens, Pancreatic cancer cell, read-out: IC50 (−LogM), capanc1, Pancrease (converted)
  IC50: 31.6 µM
[21]
  TGI: 4.15E−5 Molar
[21]; Log10 Concentration −4.0 Molar
  Percent Growth: −54%
[21]; Log10 Concentration −5.0 Molar
  Percent Growth: 87%
[21]; Log10 Concentration −6.0 Molar
  Percent Growth: 102%
[21]; Log10 Concentration −7.0 Molar
  Percent Growth: 113%
[21]; Log10 Concentration −8.0 Molar
  Percent Growth: 108%
[5]; Homo sapiens, read-out: IC50 (−LogM), H226B, Lung, first H226B line (converted)
  IC50: 0.316 µM
[5]; Homo sapiens, read-out: IC50 (−LogM), H226B, Lung, second H226B line (converted)
  IC50: 3.98 µM
[6]
  IC50: 2 µM
[7]; Homo sapiens, NCI-H1299, read-out: IC50 (−LogM), h1299, Lung (converted)
  IC50: 15.8 µM
[22]; Homo sapiens, SW-620
  GI50: 0.571 µM
[22]; Homo sapiens, SW-620, read-out: LC50
  CC50: > 100 µM
[22]; SW-620
  TGI: 1.80E−5 Molar
[22]; SW-620, Log10 Concentration −4.0 Molar
  Percent Growth: −46%
[22]; SW-620, Log10 Concentration −5.0 Molar
  Percent Growth: 16%
[22]; SW-620, Log10 Concentration −6.0 Molar
  Percent Growth: 39%
[22]; SW-620, Log10 Concentration −7.0 Molar
  Percent Growth: 83%
[22]; SW-620, Log10 Concentration −8.0 Molar
  Percent Growth: 84%
[8]; Homo sapiens, HCT-116, read-out: IC50 (−LogM), Hct116, Colon (converted)
  IC50: 3.98 µM
[9]; Homo sapiens, Pancreatic cancer cell, read-out: IC50 (−LogM) (converted)
  IC50: < 31.6 µM
[23]; Homo sapiens, OVCAR-4
  GI50: 0.34 µM
[23]; Homo sapiens, OVCAR-4, read-out: LC50
  CC50: > 100 µM
[23]; OVCAR-4
  TGI: 1.80E−5 Molar
[23]; OVCAR-4, Log10 Concentration −4.0 Molar
  Percent Growth: −29%
[23]; OVCAR-4, Log10 Concentration −5.0 Molar
  Percent Growth: 10%
[23]; OVCAR-4, Log10 Concentration −6.0 Molar
  Percent Growth: 31%
[23]; OVCAR-4, Log10 Concentration −7.0 Molar
  Percent Growth: 71%
[23]; OVCAR-4, Log10 Concentration −8.0 Molar
  Percent Growth: 94%
[10]; Homo sapiens, NCI-H1395, read-out: IC50 (−LogM) (converted)
  IC50: < 31.6 µM
[11]; [29]
  IC50: 15.8 µM
[12]; Homo sapiens, A549, read-out: IC50 (−LogM), A549, Lung (converted)
  IC50: 10 µM
[13]; [29]
  IC50: < 31.6 µM
[24]; Homo sapiens, MCF7
  GI50: 0.0873 µM
[24]; Homo sapiens, MCF7, read-out: LC50
  CC50: > 100 µM
[24]; MCF7
  TGI: 2.75E−5 Molar
[24]; MCF7, Log10 Concentration −4.0 Molar
  Percent Growth: −10%
[24]; MCF7, Log10 Concentration −5.0 Molar
  Percent Growth: 8%
[24]; MCF7, Log10 Concentration −6.0 Molar
  Percent Growth: 10%
[24]; MCF7, Log10 Concentration −7.0 Molar
  Percent Growth: 45%
[24]; MCF7, Log10 Concentration −8.0 Molar
  Percent Growth: 75%
[25]; Homo sapiens, SK-MEL-28
  GI50: 18 µM
[25]; Homo sapiens, SK-MEL-28, read-out: LC50
  CC50: > 100 µM
[25]; SK-MEL-28
  TGI: 4.44E−6 Molar
[25]; SK-MEL-28, Log10 Concentration −4.0 Molar
  Percent Growth: −45%
[25]; SK-MEL-28, Log10 Concentration −5.0 Molar
  Percent Growth: 82%
[25]; SK-MEL-28, Log10 Concentration −6.0 Molar
  Percent Growth: 93%
[25]; SK-MEL-28, Log10 Concentration −7.0 Molar
  Percent Growth: 93%
[25]; SK-MEL-28, Log10 Concentration −8.0 Molar
  Percent Growth: 83%
[14]; Homo sapiens, ASPC1, read-out: IC50 (−LogM), ASPC1, Pancrease (converted)
  IC50: 15.8 µM
[26]; Homo sapiens, SK-MEL-5
  GI50: 4.97 µM
[26]; Homo sapiens, SK-MEL-5, read-out: LC50
  CC50: 45.5 µM
[26]; SK-MEL-5
  TGI: 1.95E−5 Molar
[26]; SK-MEL-5, Log10 Concentration −4.0 Molar
  Percent Growth: −97%
[26]; SK-MEL-5, Log10 Concentration −5.0 Molar
  Percent Growth: 40%
[26]; SK-MEL-5, Log10 Concentration −6.0 Molar
  Percent Growth: 74%
[26]; SK-MEL-5, Log10 Concentration −7.0 Molar
  Percent Growth: 92%
[26]; SK-MEL-5, Log10 Concentration −8.0 Molar
  Percent Growth: 95%
[15]; Homo sapiens, NCI-H2009, read-out: IC50 (−LogM) (converted)
  IC50: < 31.6 µM
[17]; read-out: IC50 (−LogM), HKE3, Colon, first HKE3 line (converted)
  IC50: 1 µM
[17]; read-out: IC50 (−LogM), HKE3, Colon, second HKE3 line (converted)
  IC50: 1.26 µM
[27]
  TGI: 1.24E−5 Molar
[27]; Homo sapiens, NCI-H522
  GI50: 2.41 µM
[27]; Homo sapiens, NCI-H522, read-out: LC50
  CC50: 51 µM
[27]; Log10 Concentration −4.0 Molar
  Percent Growth: −74%
[27]; Log10 Concentration −5.0 Molar
  Percent Growth: 7%
[27]; Log10 Concentration −6.0 Molar
  Percent Growth: 76%
[27]; Log10 Concentration −7.0 Molar
  Percent Growth: 82%
[27]; Log10 Concentration −8.0 Molar
  Percent Growth: 91%
[28]
  TGI: 3.79E−5 Molar
[28]; Homo sapiens, NCI-H460
  GI50: 0.0888 µM
[28]; Homo sapiens, NCI-H460, read-out: LC50
  CC50: > 100 µM
[28]; Log10 Concentration −4.0 Molar
  Percent Growth: −9%
[28]; Log10 Concentration −5.0 Molar
  Percent Growth: 13%
[28]; Log10 Concentration −6.0 Molar
  Percent Growth: 20%
[28]; Log10 Concentration −7.0 Molar
  Percent Growth: 48%
[28]; Log10 Concentration −8.0 Molar
  Percent Growth: 79%
[18]; Homo sapiens, DLD-1, read-out: IC50 (−LogM) (converted)
  IC50: < 31.6 µM
[19]; [29]
  IC50: < 31.6 µM
[20]; Homo sapiens, NCI-H2122, read-out: IC50 (−LogM) (converted)
  IC50: 0.631 µM
